# Measurements taken from patent US5491135A (priority 1993, dated 1996).
# Several values for one entry are separate records, joined by “and”; a condition that tells them apart may be missing. Identical values can stand only once. Entries after “also recorded” stand apart in the source; their conditions may differ. Like-named read-outs stand apart in the source and are kept apart here.
# How the values were obtained:
# CMV = test: In vitro antiviral assay; type: cell-based
# HIV-1 = test: In vitro antiviral MTT CPE assay; type: cell-based
# humoral immune response = settings: tumor bearing animals; cited from earlier work
# vaccinia virus = settings: for Vaccinia Lesion Score: per monkey
# [1] = used alone; cited from earlier work
# herpesvirus = settings: less effective by a factor; cited from earlier work
# [2] = tested on: respiratory syncytial virus (RSV); test: RSV infection in cotton rats, lung titre; type: in vivo, cotton rat; settings: for RSV lung titre: individual animal
# From the text: 1. 50 to 100 g cotton rats of either sex inoculated i.n. with RS A2 (pool 8-28-92) on day 0.
# 2. On day +1 animals were given placebo or PALA as follows:
# 3. All animals killed on day +4 and their lungs tested for RSV levels.
# RNA and DNA viruses = type: cell-based; settings: most viruses of Table 3
# [3] = tested on: duck hepatitis B virus (DHBV); test: Duck hepatitis B (DHBV) in primary duck hepatocyte culture; type: cell-based
# Procedure: Using the duck hepatitis model (DHBV), primary duck hepatocyte cells were treated with various concentrations of PALA (disodium salt) and evaluated for cytopathic effect. In addition, viral DNA replication was assessed using "slot" dot blots. […] These experiments were performed three times with confirmatory results.
# simian varicella virus = test: Simian varicella virus infection in African green monkeys; type: in vivo, African green monkey
# Procedure: Fifteen African green monkeys were weighed and bled for clinical chemistry hematology baselines. […] Each of the 15 monkeys were infected with simian varicella virus by intratracheal inoculation of 3.7×10^4 plaque forming units (PFU) of simian varicella virus. […] Control monkeys, service as infection controls, received twice daily intravenous injections of phosphate buffered saline administered at 1.0 ml/kg of body weight. A second group of three monkeys received PALA at 50 mg/kg/day given by intravenous bolus injection into the saphenous vein. A third group was given a lower dose of PALA at 20 mg/kg/day administered in a similar manner. Acyclovir treatment was administered at a subeffective dose of 10 mg/kg/day also given as intravenous bolus injection into the saphenous vein. A fifth group of three monkeys received a combined treatment of PALA at 20 mg/kg/day and acyclovir at 10 mg/kg/day. The drugs were injected into opposite veins at each time of treatment.
# Drug solutions were prepared daily prior to treatment. Treatment was begun 24 hours after virus inoculation. PALA was provided as a solution in vials containing 5 ml at 100 mg/ml. The contents of three vials were pooled and seven ml of the pooled drug diluted to 28 ml to give 25 mg/ml. Five ml of this solution was diluted to […] to give 10 mg/ml. Drug was administered twice daily resulting in total daily doses of 50 or 20 mg/kg/day.
# Acyclovir received as a gift from Burroughs Wellcome was weighed out as a 200 mg quantity. This was diluted with 5 ml of PBS and pH adjusted to 11.0 with 1N NaOH to effect solution. This was subsequently diluted to 40 ml to give a solution of 5 mg/ml and sterilized by filtration. Again, 1 ml per kg of body weight was administered by intravenous injection twice daily resulting in a dose of 10 mg/kg/day.
# The clinical course of simian varicella infection was followed by collection of 2 ml of blood in heparin on day 2, 5, 7, 9 and 11 post-inoculation. The lymphocytes in the 2 ml specimen were separated on ficol-hypaque gradients, washed twice in RPMI-1640 medium and suspended in 10 ml of this medium. The 10 ml volume was divided between two 25 cm^2 tissue culture flasks seeded 24 hours earlier with Vero cells. After 5-7 days incubation, the culture fluids were discarded from the flasks and the cell monolayer fixed with methanol and stained with methylene blue-basic fuchsin. When dried the number of plaques in each flask were counted and the mean number of plaques between the two paired flasks were determined and expressed as a quantitation of viremia per ml of blood.
# Rash was evaluated daily using a subjective scoring of severity from ± to 4+. A ± score indicates less than 10 vesicles seen on the skin of the monkey while 4+ indicates numerous vesicles covering the majority of the body surface. General clinical condition was assessed daily and anorexia noted by counting the number of food biscuits consumed daily. Monkeys dying during the course of the experiment were necropsied and simian varicella was determined as the cause of death based on the typical pathology. Baseline hematology and clinical chemistry tests were performed at three days before virus inoculation and again on day 0, immediately before virus inoculation. Following inoculation of simian varicella virus blood was taken for hematology and clinical chemistry tests at 3, 7, 9 and 11 days.
# At 14 and 21 days after virus inoculation, blood was taken and the serum separated for quantitation of antibody. Antibody titers were obtained in a serum neutralization test employing a plaque reduction assay. The antibody titer expressed is the dilution of serum resulting in an 80 percent reduction in the number of plaques from that number occurring in control cultures without added serum.
# Sandfly fever virus = settings: Vero
# [4] = day 8, PALA 125 mg/kg day 1 & 7
# [5] = day 10, PALA 125 mg/kg day 1 & 7
# [6] = day 10, PALA 50, rifampicin 10 mg/kg/d or both
# [7] = day 13, PALA 125 mg/kg day 1 & 7
# [8] = day 13, PALA 50, rifampicin 10 mg/kg/d or both
smiles,measurement,setting,value
O=C(O)C[C@H](NC(=O)CP(=O)(O)O)C(=O)O [PALA],TI,CMV; HFF,32.0
same,IC50,"CMV; Human betaherpesvirus 5, HFF",10 µg/mL
same,TI,HIV-1; CEM,~ 5.0
same,IC50,"HIV-1; Human immunodeficiency virus 1, CCRF-CEM",12 µg/mL
same,effect on humoral immune response,humoral immune response,does not appear to significantly alter humoral immune response
same,CC50,in vitro; uninfected vero cells,> 320 µg/mL
same,CC50,in vitro; vero cells,> 320 µg/mL
same,gross pathology,vaccinia virus; PALA 125 mg/kg i.v. bolus,dark red discoloration of the liver
same,lesion development,"vaccinia virus; PALA 125 mg/kg, days 1 and 7",greater than what was seen in monkeys treated daily with PALA at a lower dose
same,virus titers in skin,"vaccinia virus; PALA 125 mg/kg, days 1 and 7",Higher titers
same,lesion development,"vaccinia virus; PALA 50, rifampicin 10 or both, mg/kg/day i.v.",effective in reducing lesion development and size
same,Weight,"vaccinia virus; day 0, PALA 125 mg/kg day 1 & 7",3.2 kg and 3.4 kg and 4.4 kg
same,Weight,"vaccinia virus; day 0, PALA 50, rifampicin 10 mg/kg/d or both",2.4 kg and 3.4 kg and 2.6 kg
same,"Vaccinia Lesion Score, group mean","vaccinia virus; day 3, PALA 125 mg/kg day 1 & 7",0.5
same,"Vaccinia Lesion Score, group mean","vaccinia virus; day 3, PALA 50, rifampicin 10 mg/kg/d or both",0.1
same,"Vaccinia Lesion Score, group mean","vaccinia virus; day 6, PALA 125 mg/kg day 1 & 7",0.7
same,"Vaccinia Lesion Score, group mean","vaccinia virus; day 6, PALA 50, rifampicin 10 mg/kg/d or both",0.6
same,"Vaccinia Lesion Score, group mean","vaccinia virus; day 7, PALA 125 mg/kg day 1 & 7",0.9
same,"Vaccinia Lesion Score, group mean","vaccinia virus; day 7, PALA 50, rifampicin 10 mg/kg/d or both",0.5
same,"Vaccinia Lesion Score, group mean",vaccinia virus; [4],1.3
same,Vaccinia Lesion Score,vaccinia virus; [4],0.7 and 1.8
same,"Vaccinia Lesion Score, group mean","vaccinia virus; day 8, PALA 50, rifampicin 10 mg/kg/d or both",0.5
same,"Vaccinia Lesion Score, group mean","vaccinia virus; day 9, PALA 125 mg/kg day 1 & 7",1.2
same,"Vaccinia Lesion Score, group mean","vaccinia virus; day 9, PALA 50, rifampicin 10 mg/kg/d or both",0.3
same,"Vaccinia Lesion Score, group mean",vaccinia virus; [5],0
same,Vaccinia Lesion Score,vaccinia virus; [5],0
same,"Vaccinia Lesion Score, group mean",vaccinia virus; [6],0
same,Weight,vaccinia virus; [6],2.2 kg and 3.2 kg and 2.4 kg
same,Vaccinia Lesion Score,vaccinia virus; [6],0
same,"Vaccinia Lesion Score, group mean",vaccinia virus; [7],0.5
same,Vaccinia Lesion Score,vaccinia virus; [7],0.3 and 0.7
same,"Vaccinia Lesion Score, group mean",vaccinia virus; [8],0
same,Vaccinia Lesion Score,vaccinia virus; [8],0
same,Weight,"vaccinia virus; day 14, PALA 125 mg/kg day 1 & 7",3.2 kg and 4.4 kg
same,Weight,"vaccinia virus; day 14, PALA 50, rifampicin 10 mg/kg/d or both",2.0 kg and 3.2 kg and 2.4 kg
same,Weight,"vaccinia virus; day 21, PALA 125 mg/kg day 1 & 7",3.4 kg and 4.2 kg
same,Weight,"vaccinia virus; day 21, PALA 50, rifampicin 10 mg/kg/d or both",2.0 kg and 3.4 kg and 2.6 kg
same,signs of toxicity,vaccinia virus; except one monkey at PALA 125 mg/kg bolus,No appreciable signs of toxicity
same,Titer of vaccinia virus in skin biopsy,"vaccinia virus; head prints day 6, PALA 125 mg/kg day 1 & 7",1.3 × 10^5 PFU/ml and 1.8 × 10^10 PFU/ml
same,clinical efficacy in cancer,[1],relatively nonefficacious
same,antiherpes effectiveness relative to parent PAA,herpesvirus,over 200
same,"RSV lung titre, mean (SD)",[2]; PALA 3 mg/kg/day,3.3 (0.3) LOG10 /G Lung
same,RSV lung titre,[2]; PALA 3 mg/kg,3.9 LOG10 and 3.5 LOG10 and 2.9 LOG10 and 3.0 LOG10
same,"RSV lung titre, mean (SD)",[2]; PALA 10 mg/kg/day,2.8 (0.5) LOG10 /G Lung
same,decrease of viral titre over control,[2]; PALA 10 mg/kg/day,1 log10
same,RSV lung titre,[2]; PALA 10 mg/kg,2.4 LOG10 and 2.9 LOG10 and 2.5 LOG10 and 3.5 LOG10
same,efficacy against RSV,[2]; i.p.,more effective than ribavirin or combinational therapy; also recorded: statistically significant efficacy; also recorded: statistically better than ribavirin; also recorded: more effective as a single agent therapy in vivo against respiratory syncytial virus than ribavirin
same,therapeutic index,RNA and DNA viruses,about 32
same,inhibition at 0.5 µM,"[3]; Duck hepatitis B virus, Hepatocyte",95%
same,toxicity,[3]; high concentrations,little or no toxicity
same,death,simian varicella virus; PALA 20 mg/kg/day i.v.,died later that same day
same,death,simian varicella virus; PALA 50 mg/kg/day i.v.,died on day 10
same,thrombocytopenia on day 11,simian varicella virus; PALA 50 or Acyclovir 10 mg/kg/day,one monkey
same,"Viremia, Mean PFU","simian varicella virus; day 5, PALA 50 mg/kg/d i.v.",136 PFU and 154 PFU and 148 PFU
same,Severity of Rash,"simian varicella virus; day 13, PALA 50 mg/kg/d i.v.",4+
same,Severity of Rash,"simian varicella virus; day 14, PALA 50 mg/kg/d i.v.",4+
same,immunosuppression,simian varicella virus; high concentrations,Some concentration dependent immunosuppression was noted at high concentrations
same,IC50,Sandfly fever virus,14.9 µg/mL
same,TI (TC50/IC50),Sandfly fever virus; 50% inhibition,> 15.32 and > 21.54
